PMC11521309, “A novel 4-aminoquinoline chemotype with multistage antimalarial activity and lack of cross-resistance with PfCRT and PfMDR1 mutants” (PLOS Pathogens, 2024)
Values joined by “and” are separate entries in the source; they are usually repeats but may differ in a detail not shown here. Equal values may be shown once. Read-outs that look alike come from different tables or passages of the source.

What was measured:
[1] = test system: P. falciparum NF10^YF; set-up: method as in ref 1 Veiga et al. 2016; settings: means ± SEM, N 6; ref 1 Veiga et al. 2016; read-out: IC50 NF10YF; cited from earlier work
[2] = test system: Hz formation in ABS P. falciparum 3D7 parasites; assay: Cellular heme fractionation assay; format: cell-based, Plasmodium falciparum
Protocol: A heme fractionation assay was used to measure the inhibition of Hz formation in cultured ABS P. falciparum 3D7 parasites as previously described. […] Late trophozoites were harvested after 32 hours of incubation by lysing RBCs with 0.05% saponin followed by multiple washes with 1 × PBS (pH 7.5) to remove any residual traces of hemoglobin. The parasite pellet was resuspended in PBS and the total number of trophozoites isolated was quantified using flow cytometry. Contents of the trophozoite pellet were released by hypotonic lysis and sonication. After centrifugation, treatments with HEPES buffer (pH 7.4), sodium dodecyl sulfate, pyridine, and NaOH, allowed us to separate the fractions corresponding to the different heme species of interest. A microplate reader was employed to measure the UV-visible spectrum of each heme fraction as a Fe(III)heme-pyridine complex. Fractions of undigested hemoglobin, “free” heme, and Hz were quantified using a heme standard curve based on the mass of each heme-Fe species per mature trophozoite (fg/cell), obtained by dividing the total amount of each heme species by the corresponding number of parasites in that fraction as determined by flow cytometry. Statistical comparisons and analyses for trends employed Students’ t-tests (GraphPad Prism version 9).

[3] = test system: P. berghei ookinete formation; assay: In vitro inhibition of ookinete formation (nLuc conversion assay), 24 h; format: cell-based, Plasmodium berghei; settings: Plasmodium berghei; for activity at 10 µM: read-out: % Inhibition of ookinete conversion, 10 uM; for activity at 25 µM: read-out: % Inhibition of ookinete conversion, 25 uM; for activity at 100 µM: read-out: % Inhibition of ookinete conversion, 100 uM
Protocol: To measure the inhibition of gamete conversion into ookinetes, a mutant luciferase-expressing P. berghei line (nLuc) was intraperitoneally injected into BALB/c mice. After 3–4 days, gametocyte-carrying blood samples were collected. In vitro compound testing was carried out by exposing 4 μL of infected blood mixed with 80 μL of culture medium (RPMI-1640 supplemented with 25 mM HEPES, 50 mg/L hypoxanthine, and 1% penicillin/streptomycin/neomycin at pH 8.3) to a range of drug concentrations for 24 hours at 21°C. Following the incubation, 20 μL of nLuc substrate (Nano-Glo Luciferase Assay System, Promega) was added to each well, and luminescence was measured in a luminometer. Increased light emission correlated with nLuc production and subsequent luciferase activity due to in vitro fertilization and ookinete conversion, as luciferase expression in this parasite line is regulated by the CTRP promoter that is ookinete-specific. Conversion inhibition was calculated as the percentage of luciferase activity of drug-exposed wells relative to untreated ones, from which IC50 values were interpolated.

[4] = 0.5x IC50, 32 h, single replicates
[5] = 0.5–3.0 × IC50 vs untreated control
[6] = 1x IC50, 32 h, single replicates
[7] = 2x IC50, 32 h, single replicates
[8] = 2.5x IC50, 32 h, single replicates
[9] = 3x IC50, 32 h, single replicates
[10] = single replicates, Control = 100

## CCN(CC)CCCC(C)Nc1ccnc2cc(Cl)ccc12 (stereo not shown) [CQ, chloroquine]
[1]
  IC50: 347 ± 24.4 nM
[2]; 0.5x IC50, 32 h, Mean
  %Hb: 3.19%
  %Hemozoin: 88.03%
  Hb Fe (fg/troph): 1.79 fg/troph
  Heme Fe (fg/troph): 4.89 fg/troph
  Hemozoin Fe (fg/troph): 48.61 fg/troph
  Total Fe (fg/troph): 57.03 fg/troph
[2]; [4]
  %Hb: 3.1577% and 3.5151% and 3.0401% and 3.0419%
  %Heme: 10.1984% and 8.3472% and 8.0733% and 8.4973%
  %Hemozoin: 86.6439% and 88.1377% and 88.8867% and 88.4608%
  Hb Fe (fg/troph): 1.6883 fg/troph and 1.9552 fg/troph and 1.7265 fg/troph and 1.8935 fg/troph
  Heme Fe (fg/troph): 5.4527 fg/troph and 4.6429 fg/troph and 4.5850 fg/troph and 5.2894 fg/troph
  Hemozoin Fe (fg/troph): 46.3251 fg/troph and 49.0239 fg/troph and 50.4811 fg/troph and 55.0658 fg/troph
  Total Fe (fg/troph): 53.47 fg/troph and 55.62 fg/troph and 56.79 fg/troph and 62.25 fg/troph
[2]; [5]
  effect on Hz levels: Hz levels only decreased significantly from 2 × IC50
  effect on undigested Hb: significant at 2.5 × IC50 of CQ only
  effect on “free” heme: significant increase in “free” heme starting at 0.5 × IC50
[2]; 1x IC50, 32 h, Mean
  %Hb: 3.14%
  %Hemozoin: 88.13%
  Hb Fe (fg/troph): 1.74 fg/troph
  Heme Fe (fg/troph): 5.05 fg/troph
  Hemozoin Fe (fg/troph): 48.59 fg/troph
  Total Fe (fg/troph): 56.08 fg/troph
[2]; [6]
  %Hb: 2.4393% and 3.8543% and 3.1547% and 3.1175%
  %Heme: 10.2450% and 7.2686% and 7.4306%
  %Hemozoin: 87.3158% and 86.1923% and 89.5767% and 89.4519%
  Hb Fe (fg/troph): 1.3251 fg/troph and 2.0733 fg/troph and 1.8303 fg/troph and 1.8137 fg/troph
  Heme Fe (fg/troph): 5.5654 fg/troph and 5.3541 fg/troph and 4.2171 fg/troph and 4.3229 fg/troph
  Hemozoin Fe (fg/troph): 47.4331 fg/troph and 46.3642 fg/troph and 51.9709 fg/troph and 52.0405 fg/troph
  Total Fe (fg/troph): 54.32 fg/troph and 53.79 fg/troph and 58.02 fg/troph and 58.18 fg/troph
[2]; 2x IC50, 32 h, Mean
  %Hb: 3.51%
  %Hemozoin: 87.00%
  Hb Fe (fg/troph): 1.98 fg/troph
  Heme Fe (fg/troph): 5.58 fg/troph
  Hemozoin Fe (fg/troph): 48.43 fg/troph
  Total Fe (fg/troph): 56.59 fg/troph
[2]; [7]
  %Hb: 3.5841% and 3.0885% and 3.9396% and 3.4358%
  %Heme: 10.5037% and 10.6360% and 8.0922%
  %Hemozoin: 85.9123% and 86.2755% and 87.3313% and 88.4720%
  Hb Fe (fg/troph): 2.0351 fg/troph and 1.7333 fg/troph and 2.1697 fg/troph and 2.0058 fg/troph
  Heme Fe (fg/troph): 5.9641 fg/troph and 5.9691 fg/troph and 4.8074 fg/troph and 4.7243 fg/troph
  Hemozoin Fe (fg/troph): 48.7818 fg/troph and 48.4187 fg/troph and 48.0959 fg/troph and 51.6502 fg/troph
  Total Fe (fg/troph): 56.78 fg/troph and 56.12 fg/troph and 55.07 fg/troph and 58.38 fg/troph
[2]; 2.5x IC50, 32 h, Mean
  %Hb: 4.73%
  %Heme: 10.26%
  %Hemozoin: 85.01%
  Hb Fe (fg/troph): 2.72 fg/troph
  Heme Fe (fg/troph): 5.95 fg/troph
  Hemozoin Fe (fg/troph): 47.56 fg/troph
  Total Fe (fg/troph): 56.58 fg/troph
[2]; [8]
  %Hb: 4.8862% and 4.8721% and 4.7430% and 4.4317%
  %Heme: 10.8743% and 11.0956%
  %Hemozoin: 84.2395% and 85.3413% and 84.1614% and 86.2810%
  Hb Fe (fg/troph): 2.8007 fg/troph and 2.7933 fg/troph and 2.5619 fg/troph and 2.5547 fg/troph
  Heme Fe (fg/troph): 6.2331 fg/troph and 5.6110 fg/troph and 5.9933 fg/troph and 5.3538 fg/troph
  Hemozoin Fe (fg/troph): 48.2856 fg/troph and 48.9290 fg/troph and 45.4601 fg/troph and 49.7378 fg/troph
  Total Fe (fg/troph): 57.32 fg/troph and 57.33 fg/troph and 54.02 fg/troph and 57.65 fg/troph
[2]; 3x IC50, 32 h, Mean
  %Hb: 3.75%
  %Heme: 14.98%
  %Hemozoin: 81.27%
  Hb Fe (fg/troph): 2.01 fg/troph
  Heme Fe (fg/troph): 8.01 fg/troph
  Hemozoin Fe (fg/troph): 43.26 fg/troph
  Total Fe (fg/troph): 56.94 fg/troph
[2]; [9]
  %Hb: 2.5119% and 4.3346% and 4.4230% and 3.7332%
  %Heme: 15.7024% and 13.7857% and 15.6412% and 14.7736%
  %Hemozoin: 81.7857% and 81.8796% and 79.9358% and 81.4933%
  Hb Fe (fg/troph): 1.3141 fg/troph and 2.3188 fg/troph and 2.3892 fg/troph and 2.5358 fg/troph
  Heme Fe (fg/troph): 8.2149 fg/troph and 7.3747 fg/troph and 8.4490 fg/troph and 10.0350 fg/troph
  Hemozoin Fe (fg/troph): 42.7874 fg/troph and 43.8015 fg/troph and 43.1792 fg/troph and 55.3544 fg/troph
  Total Fe (fg/troph): 52.32 fg/troph and 53.50 fg/troph and 54.02 fg/troph and 67.93 fg/troph
[3]; Mean, Control mean 96.63
  activity at 10 µM: 43.2%
  activity at 25 µM: 14.4%
  activity at 100 µM: 0.22%
[3]; [10]
  activity at 10 µM: 38.1%
  activity at 25 µM: 12.7%
  activity at 100 µM: 0.2%
[3]; read-out: % Inhibition of ookinete conversion, 50 uM, Mean, Control mean 96.63
  activity at 50 µM: 0.49%
[3]; read-out: inhibition of zygote conversion into ookinetes
  inhibition at 10 µM: 56.7%
